Test [1] deals with OCT binding sites, elasmobranch electric organ synaptosomes (Diplobatis ommata, UniProt P56698). Briefly: biochemical. Details: species or system Ommata dyscopyge (marine electric ray).
Test [2] addresses OCT binding site, rat brain synaptosomes (Rattus norvegicus, UniProt Q02294). Briefly: biochemical.
Test [3] concerns depolarization-dependent ATP release from electric organ synaptosomes. Format: biochemical, Ommata discopyge. The conditions noted are these: read-out: IC50 (ATP release inhibition).
Test [4] concerns hippocampal CA1 region, gerbil global ischemia model. Details: species or system Meriones unguiculatus (mongolian gerbil). Particulars: in vivo.
In test [5] the test system is voltage-gated calcium channels, dorsal root ganglion (DRG) neurons. The conditions noted are these: cited from earlier work.
For test [6], the target named is OCT receptor sites, PC-12 rat pheochromocytoma cells (Rattus norvegicus, UniProt Q02294). It is filed as binding.
Chain of OCT receptor sites, PC-12 rat pheochromocytoma cells (Q02294 whole entry, looked up): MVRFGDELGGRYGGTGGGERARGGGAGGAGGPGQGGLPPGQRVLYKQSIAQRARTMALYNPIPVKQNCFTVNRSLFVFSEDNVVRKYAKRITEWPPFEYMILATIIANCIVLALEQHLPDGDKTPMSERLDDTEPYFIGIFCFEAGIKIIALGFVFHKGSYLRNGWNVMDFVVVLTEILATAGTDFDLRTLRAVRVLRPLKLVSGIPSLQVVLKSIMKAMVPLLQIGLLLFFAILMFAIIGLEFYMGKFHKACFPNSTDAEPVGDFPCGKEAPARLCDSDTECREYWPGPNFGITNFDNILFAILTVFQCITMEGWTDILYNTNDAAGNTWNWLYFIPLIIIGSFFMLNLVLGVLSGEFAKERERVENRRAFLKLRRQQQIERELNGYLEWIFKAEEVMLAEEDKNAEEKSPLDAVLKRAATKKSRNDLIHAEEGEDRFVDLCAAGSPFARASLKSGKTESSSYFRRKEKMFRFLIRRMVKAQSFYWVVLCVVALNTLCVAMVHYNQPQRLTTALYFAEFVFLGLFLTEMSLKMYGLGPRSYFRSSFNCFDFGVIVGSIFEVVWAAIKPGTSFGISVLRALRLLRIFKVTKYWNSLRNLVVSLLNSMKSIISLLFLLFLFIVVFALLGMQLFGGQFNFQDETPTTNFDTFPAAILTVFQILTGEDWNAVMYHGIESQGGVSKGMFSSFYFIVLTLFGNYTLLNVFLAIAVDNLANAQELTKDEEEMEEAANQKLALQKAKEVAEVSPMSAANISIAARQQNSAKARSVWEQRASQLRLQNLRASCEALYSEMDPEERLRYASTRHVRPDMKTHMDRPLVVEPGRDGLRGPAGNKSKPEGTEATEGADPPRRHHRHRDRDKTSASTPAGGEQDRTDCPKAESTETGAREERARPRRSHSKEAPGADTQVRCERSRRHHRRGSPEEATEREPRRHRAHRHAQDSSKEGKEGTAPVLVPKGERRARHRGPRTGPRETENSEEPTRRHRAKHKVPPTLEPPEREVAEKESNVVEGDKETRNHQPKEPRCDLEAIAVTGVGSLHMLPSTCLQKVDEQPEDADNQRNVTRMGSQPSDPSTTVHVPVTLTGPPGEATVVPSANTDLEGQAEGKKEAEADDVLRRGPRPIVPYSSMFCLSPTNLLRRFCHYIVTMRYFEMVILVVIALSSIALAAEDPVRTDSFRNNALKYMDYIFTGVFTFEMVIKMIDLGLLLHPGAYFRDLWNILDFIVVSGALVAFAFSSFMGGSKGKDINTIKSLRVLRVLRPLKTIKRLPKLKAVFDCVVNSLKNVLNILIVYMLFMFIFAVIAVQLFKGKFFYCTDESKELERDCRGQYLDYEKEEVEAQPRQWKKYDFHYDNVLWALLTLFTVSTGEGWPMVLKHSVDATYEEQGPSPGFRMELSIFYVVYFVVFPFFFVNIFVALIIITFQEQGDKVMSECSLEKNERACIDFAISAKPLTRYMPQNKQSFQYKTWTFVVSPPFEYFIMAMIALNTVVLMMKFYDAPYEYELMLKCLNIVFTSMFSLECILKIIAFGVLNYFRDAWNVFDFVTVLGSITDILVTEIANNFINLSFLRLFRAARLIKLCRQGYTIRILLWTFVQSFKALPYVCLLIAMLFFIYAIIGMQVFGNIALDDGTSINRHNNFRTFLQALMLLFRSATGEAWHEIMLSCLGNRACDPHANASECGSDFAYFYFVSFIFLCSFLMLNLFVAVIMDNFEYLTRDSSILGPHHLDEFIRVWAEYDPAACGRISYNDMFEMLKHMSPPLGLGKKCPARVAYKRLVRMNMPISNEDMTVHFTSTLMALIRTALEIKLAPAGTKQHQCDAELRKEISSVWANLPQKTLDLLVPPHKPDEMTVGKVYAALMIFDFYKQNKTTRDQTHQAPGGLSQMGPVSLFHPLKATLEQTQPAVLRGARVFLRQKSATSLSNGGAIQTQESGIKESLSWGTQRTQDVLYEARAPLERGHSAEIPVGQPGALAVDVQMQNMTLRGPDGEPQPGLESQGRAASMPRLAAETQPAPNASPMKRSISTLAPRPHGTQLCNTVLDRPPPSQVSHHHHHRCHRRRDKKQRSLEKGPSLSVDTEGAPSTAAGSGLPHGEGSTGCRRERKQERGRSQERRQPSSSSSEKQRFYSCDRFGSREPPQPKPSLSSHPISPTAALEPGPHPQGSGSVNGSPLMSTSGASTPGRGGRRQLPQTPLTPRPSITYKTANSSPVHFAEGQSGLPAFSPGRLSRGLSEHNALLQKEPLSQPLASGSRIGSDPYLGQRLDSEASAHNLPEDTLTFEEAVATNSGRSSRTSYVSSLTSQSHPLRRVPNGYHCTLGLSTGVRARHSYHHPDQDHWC
The test system of test [7] is OCT receptor sites, 293 human kidney cells. Format: binding.
Test [8] has as its system hippocampal CA1 region, rat four-vessel occlusion model. Set-up: species or system rat (Fisher 344). Particulars: in vivo.
For another test, the system named is Male Swiss-Webster mice. The conditions noted are these: mouse, in vivo; cited from earlier work.

Where “and” joins values, the source holds several entries; their conditions need not be identical. Equal values may be shown once. Bridge positions count the residues as written; N and C are the ends. Square brackets hold non-standard residues; d marks the D form. Peptide text beside a SMILES is read from it. Hyp = O=C(O)[C@@H]1C[C@@H](O)CN1 A value given as a limit tells only on which side of the number the result lay.

Chain of OCT binding site, rat brain synaptosomes (Q02294 whole entry, looked up): as above
Chain of OCT binding sites, elasmobranch electric organ synaptosomes (P56698 whole entry, looked up): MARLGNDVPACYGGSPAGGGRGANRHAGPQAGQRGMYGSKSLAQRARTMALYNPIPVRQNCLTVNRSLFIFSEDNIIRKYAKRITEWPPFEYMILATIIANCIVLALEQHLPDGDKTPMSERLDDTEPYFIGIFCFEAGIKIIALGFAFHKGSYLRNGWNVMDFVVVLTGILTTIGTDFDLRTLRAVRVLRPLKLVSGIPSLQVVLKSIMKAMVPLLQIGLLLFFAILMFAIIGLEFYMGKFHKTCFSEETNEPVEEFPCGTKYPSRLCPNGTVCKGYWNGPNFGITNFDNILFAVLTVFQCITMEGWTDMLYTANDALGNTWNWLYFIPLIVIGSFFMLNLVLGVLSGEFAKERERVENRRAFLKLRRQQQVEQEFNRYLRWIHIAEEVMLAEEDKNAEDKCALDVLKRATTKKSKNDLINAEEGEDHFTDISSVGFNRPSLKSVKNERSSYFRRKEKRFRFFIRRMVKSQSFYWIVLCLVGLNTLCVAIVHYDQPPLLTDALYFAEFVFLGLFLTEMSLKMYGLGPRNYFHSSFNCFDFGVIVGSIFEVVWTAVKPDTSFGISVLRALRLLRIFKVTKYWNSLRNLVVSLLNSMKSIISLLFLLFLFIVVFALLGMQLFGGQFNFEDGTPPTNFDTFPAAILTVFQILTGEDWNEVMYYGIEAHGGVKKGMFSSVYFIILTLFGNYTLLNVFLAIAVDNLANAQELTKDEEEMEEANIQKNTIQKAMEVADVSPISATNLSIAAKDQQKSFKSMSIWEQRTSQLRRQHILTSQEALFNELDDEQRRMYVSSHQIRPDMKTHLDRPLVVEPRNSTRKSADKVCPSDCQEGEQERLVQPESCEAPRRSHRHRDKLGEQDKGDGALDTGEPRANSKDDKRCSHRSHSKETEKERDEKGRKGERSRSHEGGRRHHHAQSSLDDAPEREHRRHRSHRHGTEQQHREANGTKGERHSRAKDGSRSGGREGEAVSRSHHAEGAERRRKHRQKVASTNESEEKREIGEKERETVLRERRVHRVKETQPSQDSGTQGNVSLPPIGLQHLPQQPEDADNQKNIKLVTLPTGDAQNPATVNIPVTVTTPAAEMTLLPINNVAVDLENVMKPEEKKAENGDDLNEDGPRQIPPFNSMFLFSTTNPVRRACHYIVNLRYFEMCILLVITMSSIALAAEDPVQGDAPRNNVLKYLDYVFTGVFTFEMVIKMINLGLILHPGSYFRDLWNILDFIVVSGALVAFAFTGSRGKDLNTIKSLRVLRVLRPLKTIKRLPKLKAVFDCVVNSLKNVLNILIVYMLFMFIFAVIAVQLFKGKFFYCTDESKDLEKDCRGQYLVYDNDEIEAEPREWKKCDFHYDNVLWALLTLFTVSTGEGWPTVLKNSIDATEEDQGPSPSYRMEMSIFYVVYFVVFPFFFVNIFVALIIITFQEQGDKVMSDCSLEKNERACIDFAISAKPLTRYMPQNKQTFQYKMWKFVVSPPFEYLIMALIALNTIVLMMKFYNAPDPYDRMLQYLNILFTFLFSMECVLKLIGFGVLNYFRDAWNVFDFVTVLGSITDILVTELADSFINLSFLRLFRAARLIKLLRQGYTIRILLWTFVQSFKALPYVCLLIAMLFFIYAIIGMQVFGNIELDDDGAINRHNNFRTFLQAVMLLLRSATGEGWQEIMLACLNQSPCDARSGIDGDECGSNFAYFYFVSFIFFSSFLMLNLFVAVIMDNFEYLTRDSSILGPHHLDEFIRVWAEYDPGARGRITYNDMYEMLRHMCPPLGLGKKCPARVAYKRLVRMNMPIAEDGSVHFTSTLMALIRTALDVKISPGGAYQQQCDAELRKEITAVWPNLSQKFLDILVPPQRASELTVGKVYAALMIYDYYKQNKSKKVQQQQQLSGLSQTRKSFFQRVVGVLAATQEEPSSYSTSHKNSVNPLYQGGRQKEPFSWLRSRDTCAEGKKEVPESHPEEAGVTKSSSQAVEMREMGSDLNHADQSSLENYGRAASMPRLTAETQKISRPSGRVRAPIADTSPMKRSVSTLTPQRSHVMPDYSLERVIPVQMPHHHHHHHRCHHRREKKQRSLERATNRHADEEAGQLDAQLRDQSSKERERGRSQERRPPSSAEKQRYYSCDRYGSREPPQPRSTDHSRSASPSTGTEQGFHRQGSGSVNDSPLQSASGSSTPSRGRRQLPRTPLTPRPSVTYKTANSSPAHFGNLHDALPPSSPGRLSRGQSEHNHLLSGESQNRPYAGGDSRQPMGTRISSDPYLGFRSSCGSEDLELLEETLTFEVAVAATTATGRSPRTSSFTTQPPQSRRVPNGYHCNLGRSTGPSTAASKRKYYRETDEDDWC

For `C[C@@H](O)[C@@H]1NC(=O)[C@H](Cc2ccc(O)cc2)NC(=O)[C@@H]2C[C@@H](O)CN2C(=O)[C@H](CC(N)=O)NC(=O)[C@@H]2CSSC[C@@H]3NC(=O)[C@H](CO)NC(=O)[C@H](CO)NC(=O)CNC(=O)[C@@H]4C[C@@H](O)CN4C(=O)[C@H](CO)NC(=O)[C@H](CCCCN)NC(=O)[C@@H](N)CSSC[C@H](NC(=O)[C@H](CSSC[C@@H](C(=O)N[C@@H](Cc4ccc(O)cc4)C(N)=O)NC(=O)[C@H](CCCNC(=N)N)NC(=O)[C@H](CCCCN)NC1=O)NC(=O)[C@H](CC(N)=O)NC(=O)[C@H](Cc1ccc(O)cc1)NC(=O)[C@H](CO)NC(=O)[C@H]([C@@H](C)O)NC(=O)[C@@H]1C[C@@H](O)CN1C(=O)[C@H](CO)NC3=O)C(=O)N[C@@H](CCCNC(=N)N)C(=O)N[C@@H](CO)C(=O)N2` [GVIA, HCysLysSer4HypGlySerSerCysSer4HypThrSerTyrAsnCysCysArgSerCysAsn4HypTyrLysArgCysTyr-NH2], the Ki – broadly, a dissociation constant, usually derived from enzyme kinetics or from competition with a known ligand – in test [1] (pKi) is 0.0141 µM. In test [2], the IC50 (in general, the point on the concentration scale where inhibition reaches its midpoint) was found to be 0.00048 µM. Further, the IC50 in test [3] stood at 0.2 µM. In addition, in test [4], the “Mean score (S.E.M), CA1 damage 0-4” value was 1.3 (.33) and 1.2 (.39); the “Percent Damage” value was 42% and 39%; the reduction in damage is given as over 50%. Also, the “block of voltage-gated calcium channels” value in test [5] is “block voltage-gated calcium channels”.

In the case of `CSCC[C@@H]1NC(=O)CNC(=O)[C@H](CCCNC(=N)N)NC(=O)[C@H](CO)NC(=O)[C@@H]2CSSC[C@@H]3NC(=O)[C@H](CO)NC(=O)[C@H]([C@@H](C)O)NC(=O)[C@H](CSSC[C@H](N)C(=O)N[C@@H](CCCCN)C(=O)N[C@@H](CO)C(=O)N4C[C@H](O)C[C@H]4C(=O)NCC(=O)N[C@@H]([C@@H](C)O)C(=O)N4C[C@H](O)C[C@H]4C(=O)N2)NC(=O)[C@H](CSSC[C@@H](C(=O)N[C@@H](CCCNC(=N)N)C(=O)N[C@@H](CCCNC(=N)N)C(=O)N[C@@H](Cc2ccc(O)cc2)C(N)=O)NC(=O)[C@H](CCCCN)NC(=O)[C@H](CC(N)=O)NC(=O)[C@H](CO)NC(=O)[C@H](Cc2ccc(O)cc2)NC(=O)[C@H](CC(C)C)NC(=O)[C@H](CC(C)C)NC3=O)NC(=O)[C@H](CC(=O)O)NC(=O)[C@H](CCCNC(=N)N)NC1=O` [GVIIA] (H-CKS[Hyp]GT[Hyp]CSRGMRDCCTSCLLYSNKCRRY-NH2; disulfide 1-16, 8-19, 15-26), the affinity in test [1] (pKi), expressed as Ki, was 0.00309 µM. This compound also gave an IC50 in test [2] of 0.0229 µM.

Turning to `CSCC[C@@H]1NC(=O)[C@H](CC(C)C)NC(=O)[C@H](CCCNC(=N)N)NC(=O)[C@H](CO)NC(=O)[C@@H]2CSSC[C@@H]3NC(=O)[C@H](CO)NC(=O)CNC(=O)[C@H]([C@@H](C)O)NC(=O)[C@H](CSSC[C@H](N)C(=O)N[C@@H](CCCCN)C(=O)NCC(=O)N[C@@H](CCCCN)C(=O)NCC(=O)N[C@@H](C)C(=O)N[C@@H](CCCCN)C(=O)N2)NC(=O)[C@H](CSSC[C@@H](C(N)=O)NC(=O)[C@H](CCCCN)NC(=O)CNC(=O)[C@H](CO)NC(=O)[C@H](CCCNC(=N)N)NC3=O)NC(=O)[C@H](CC(=O)O)NC(=O)[C@H](Cc2ccc(O)cc2)NC1=O` [MVIIA], the “concentration of specific binding sites” value in test [6] is 56.6 and 79.1; in [7], under 4.6. Also, in test [3], the half-inhibitory concentration (IC50) turned out to be 0.03 µM. The “Mean score (S.E.M), CA1 damage 0-4” value in test [8] is on record as 1.2 (0.36). For the same compound, the “effect of ICV administration in mice” value in the test with Male Swiss-Webster mice is “whole-body tremors”.

Regarding `C[C@@H]1NC(=O)CNC(=O)[C@H](CCCCN)NC(=O)CNC(=O)[C@H](CCCCN)NC(=O)[C@@H](N)CSSC[C@@H]2NC(=O)[C@@H]3CSSC[C@@H](C(N)=O)NC(=O)[C@H](CCCCN)NC(=O)CNC(=O)[C@H](CCCNC(=N)N)NC(=O)[C@H](CC(N)=O)NC(=O)[C@H](CSSC[C@H](NC(=O)[C@H](CO)NC1=O)C(=O)N[C@@H](Cc1c[nH]cn1)C(=O)N[C@@H](CCCNC(=N)N)C(=O)N[C@@H]([C@@H](C)O)C(=O)N[C@@H](CO)C(=O)N[C@@H](Cc1ccc(O)cc1)C(=O)N[C@@H](CC(=O)O)C(=O)N3)NC(=O)[C@H](CO)NC(=O)CNC(=O)[C@H]([C@@H](C)O)NC2=O` [MVIIB] (H-CKGKGASCHRTSYDCCTGSCNRGKC-NH2; disulfide 1-16, 8-20, 15-25), the affinity in test [1] (pKi), expressed as Ki, was 0.0219 µM. This compound also registered a half-maximal inhibitory concentration (IC50) in test [2] of 0.00049 µM.

For the compound `CC(C)[C@@H]1NC(=O)[C@H](CCCNC(=N)N)NC(=O)[C@@H]2CSSC[C@@H]3NC(=O)[C@H](CO)NC(=O)[C@H](CO)NC(=O)[C@H](CSSC[C@H](N)C(=O)N[C@@H](CCCCN)C(=O)N4CCC[C@H]4C(=O)N4C[C@H](O)C[C@H]4C(=O)NCC(=O)N[C@@H](CO)C(=O)N4C[C@H](O)C[C@H]4C(=O)N2)NC(=O)[C@H](CSSC[C@@H](C(=O)NCC(N)=O)NC(=O)[C@H](CCCCN)NC(=O)[C@H](CCCCN)NC(=O)[C@H](CC(N)=O)NC(=O)[C@H](Cc2ccc(O)cc2)NC(=O)[C@H](CO)NC(=O)[C@H](CCCCN)NC3=O)NC(=O)[C@H](CC(N)=O)NC(=O)[C@H](Cc2ccc(O)cc2)NC(=O)[C@H](CO)NC(=O)[C@H](CO)NC1=O` [RVIA] (H-CKP[Hyp]GS[Hyp]CRVSSYNCCSSCKSYNKKCG-NH2; disulfide 1-16, 8-19, 15-26), the values for the Ki in [1] (Ki) and in test [1] (pKi) were 0.324 µM and 0.355 µM, respectively. The IC50 in [2] turned out to be 0.229 µM.

For the compound `CC[C@H](C)[C@@H]1NC(=O)[C@H](CO)NC(=O)[C@H]([C@@H](C)O)NC(=O)[C@H](C(C)C)NC(=O)CNC(=O)[C@@H]2CSSC[C@@H]3NC(=O)[C@H](CCCNC(=N)N)NC(=O)CNC(=O)[C@H](CSSC[C@H](N)C(=O)N[C@@H](CCCNC(=N)N)C(=O)N[C@@H](CO)C(=O)N[C@@H](CO)C(=O)NCC(=O)N[C@@H](CO)C(=O)N4C[C@H](O)C[C@H]4C(=O)N[C@@H](Cc4c[nH]cn4)C(=O)N2)NC(=O)[C@H](CSSC[C@@H](C(=O)N[C@H](C(N)=O)[C@@H](C)O)NC(=O)[C@H](CCCCN)NC(=O)CNC(=O)[C@H](CCCNC(=N)N)NC(=O)[C@H](Cc2ccc(O)cc2)NC3=O)NC1=O` [SVIA, H-CysArgSerSerGlySer4HypHisCysGlyValThrSerIleCysCysGly ArgCysTyrArgGlyLysCysThr-NH2] (H-CRSSGS[Hyp]HCGVTSICCGRCYRGKCT-NH2; disulfide 1-16, 9-19, 15-24), the “binding affinity/activity (in words)” value in test [1] is recorded as “relatively low affinity binding”. This compound came in with a Ki in test [1] (pKi) of over 1000 µM. This compound yielded an IC50 in test [2] of over 1000 µM.

Consider `CC(C)C[C@@H]1NC(=O)[C@H](CCCCN)NC(=O)[C@@H](N)CSSC[C@@H]2NC(=O)[C@@H]3CSSC[C@@H](C(N)=O)NC(=O)[C@H](CCCCN)NC(=O)CNC(=O)[C@H](CO)NC(=O)[C@H](CCCNC(=N)N)NC(=O)CNC(=O)[C@H](CSSC[C@H](NC(=O)[C@H](CO)NC(=O)[C@H](CCC(N)=O)NC(=O)CNC(=O)[C@H](CCCCN)NC1=O)C(=O)N[C@@H](CCCNC(=N)N)C(=O)N[C@@H](CCCCN)C(=O)N[C@@H]([C@@H](C)O)C(=O)N[C@@H](CO)C(=O)N[C@@H](Cc1ccc(O)cc1)C(=O)N[C@@H](CC(=O)O)C(=O)N3)NC(=O)[C@H](CO)NC(=O)CNC(=O)[C@H](CO)NC2=O` [SVIB] (H-CKLKGQSCRKTSYDCCSGSCGRSGKC-NH2; disulfide 1-16, 8-20, 15-26), for which the Ki in test [1] (pKi) is 0.00302 µM. The compound further had a 50% inhibitory concentration (IC50) in [2] of 0.0057 µM.
